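Results reflect a 48-hour exposure of cells in 96-well plates to compound at five concentrations. GI50 marks 50% less growth. Definition used: TGI = concentration required for complete inhibition of growth.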
Experiments:
Experiment in all cases: DTP human tumour cell line panel, 48 h
[1] = test system: 786-0 renal
[2] = test system: A498 renal
[3] = test system: A549 NSCLC
[4] = test system: ACHN renal
[5] = test system: BT-549 breast
[6] = test system: CAKI-1 renal
[7] = test system: CCRF-CEM leukemia
[8] = test system: COLO 205 colon
[9] = test system: DU-145 prostate
[10] = test system: EKVX NSCLC
[11] = test system: HCC-2998 colon
[12] = test system: HCT-116 colon
[13] = test system: HCT-15 colon
[14] = test system: HL-60(TB) leukemia
[15] = test system: HOP-62 NSCLC
[16] = test system: HOP-92 NSCLC
[17] = test system: HS 578T breast
[18] = test system: HT29 colon
[19] = test system: IGROV1 ovarian
[20] = test system: K-562 leukemia
[21] = test system: KM12 colon
[22] = test system: LOX IMVI melanoma
[23] = test system: M14 melanoma
[24] = test system: MALME-3M melanoma
[25] = test system: MCF7 breast
[26] = test system: MDA-MB-231 breast
[27] = test system: MDA-MB-435
[28] = test system: MOLT-4 leukemia
[29] = test system: NCI-H226 lung
[30] = test system: NCI-H23 lung
[31] = test system: NCI-H460 lung
[32] = test system: NCI-H522 lung
[33] = test system: NCI/ADR-RES ovarian
[34] = test system: OVCAR-3 ovarian
[35] = test system: OVCAR-4 ovarian
[36] = test system: OVCAR-5 ovarian
[37] = test system: OVCAR-8 ovarian
[38] = test system: PC-3 prostate
[39] = test system: RPMI-8226 leukemia
[40] = test system: RXF 393 renal
[41] = test system: SF-268 CNS
[42] = test system: SF-295 CNS
[43] = test system: SF-539 CNS
[44] = test system: SK-MEL-2 melanoma
[45] = test system: SK-MEL-28 melanoma
[46] = test system: SK-MEL-5 melanoma
[47] = test system: SK-OV-3 ovarian
[48] = test system: SN12C renal
[49] = test system: SNB-19 CNS
[50] = test system: SNB-75 CNS
[51] = test system: SR leukemia
[52] = test system: SW-620 colon
[53] = test system: T-47D breast
[54] = test system: U251 CNS
[55] = test system: UACC-257 melanoma
[56] = test system: UACC-62 melanoma
[57] = test system: UO-31 renal

Work on CCOC(=O)C(Cc1ccccc1)n1c(O)c(/C=N/c2ncc(Cc3ccc(Cl)cc3Cl)s2)sc1=S (centres undefined) yielded a GI50 [1] of 3.15 µM, a TGI [1] of over 100 µM and a GI50 [2] of 1580 nM. For the same compound, the TGI [2] was 7.64 µM, the GI50 [3] was 3.68 µM and the TGI [3] was over 100 µM. The GI50 [4] was 2920 nM, the TGI [4] was over 100 µM and the GI50 [5] was 2370 nM. It also gave a TGI [5] of 8.23 µM, a GI50 [6] of 1710 nM and a TGI [6] of over 100 µM. For the same compound, the GI50 [7] was 1870 nM, the TGI [7] was over 100 µM and the GI50 [8] was 1660 nM. The TGI [8] was 3.34 µM, the GI50 [9] was 3.9 µM and the TGI [9] was over 100 µM. It also gave a GI50 [10] of 2070 nM, a TGI [10] of over 100 µM and a GI50 [11] of 2540 nM. For the same compound, the TGI [11] was 42.3 µM, the GI50 [12] was 2030 nM and the TGI [12] was 11.5 µM. For the same compound, the GI50 [13] was 548 nM, the TGI [13] was over 100 µM and the GI50 [14] was 2290 nM. For the same compound, the TGI [14] was 7.06 µM, the GI50 [15] was 2690 nM and the TGI [15] was 8.12 µM. For the same compound, the GI50 [16] was 1650 nM, the TGI [16] was 6.22 µM and the GI50 [17] was 3.62 µM. It also gave a TGI [17] of 41.1 µM, a GI50 [18] of 2240 nM and a TGI [18] of 7.7 µM. It also gave a GI50 [19] of 3.73 µM, a TGI [19] of 71.5 µM and a GI50 [20] of 2030 nM. It also gave a TGI [20] of over 100 µM, a GI50 [21] of 1840 nM and a TGI [21] of 11.6 µM. The GI50 [22] was 3.44 µM, the TGI [22] was 16.5 µM and the GI50 [23] was 3.02 µM. The TGI [23] was 16.7 µM, the GI50 [24] was 2770 nM and the TGI [24] was 9.25 µM. For the same compound, the GI50 [25] was 2360 nM, the TGI [25] was over 100 µM and the GI50 [26] was 3.88 µM. The TGI [26] was 21.4 µM, the GI50 [27] was 3.38 µM and the TGI [27] was over 100 µM. It also gave a GI50 [28] of 3.29 µM, a TGI [28] of over 100 µM and a GI50 [29] of 3.29 µM. It also gave a TGI [29] of over 100 µM, a GI50 [30] of 1900 nM and a TGI [30] of 12.4 µM. It also gave a GI50 [31] of 2090 nM, a TGI [31] of 12.4 µM and a GI50 [32] of 1310 nM. The TGI [32] was 5.7 µM, the GI50 [33] was 2560 nM and the TGI [33] was 15.1 µM. For the same compound, the GI50 [34] was 2840 nM, the TGI [34] was 9.96 µM and the GI50 [35] was 3.22 µM. The TGI [35] was over 100 µM, the GI50 [36] was 4.2 µM and the TGI [36] was over 100 µM. The GI50 [37] was 2070 nM, the TGI [37] was over 100 µM and the GI50 [38] was 2080 nM. It also gave a TGI [38] of over 100 µM, a GI50 [39] of 2120 nM and a TGI [39] of over 100 µM. For the same compound, the GI50 [40] was 2560 nM, the TGI [40] was 6.7 µM and the GI50 [41] was 2420 nM. For the same compound, the TGI [41] was 64.8 µM, the GI50 [42] was 2310 nM and the TGI [42] was 6.84 µM. For the same compound, the GI50 [43] was 2580 nM, the TGI [43] was 6.95 µM and the GI50 [44] was 1310 nM. It also gave a TGI [44] of 5.68 µM, a GI50 [45] of 2610 nM and a TGI [45] of 26.4 µM. The GI50 [46] was 1520 nM, the TGI [46] was 4.13 µM and the GI50 [47] was 2380 nM. It also gave a TGI [47] of 11.8 µM, a GI50 [48] of 1590 nM and a TGI [48] of over 100 µM. It also gave a GI50 [49] of 5.05 µM, a TGI [49] of over 100 µM and a GI50 [50] of 2810 nM. The TGI [50] was 21.4 µM, the GI50 [51] was 3.98 µM and the TGI [51] was over 100 µM. It also gave a GI50 [52] of 3.45 µM, a TGI [52] of over 100 µM and a GI50 [53] of 2160 nM. It also gave a TGI [53] of 8.73 µM, a GI50 [54] of 2510 nM and a TGI [54] of 15 µM. For the same compound, the GI50 [55] was 2720 nM, the TGI [55] was 8.57 µM and the GI50 [56] was 1630 nM. The TGI [56] was 6.37 µM, the GI50 [57] was 1970 nM and the TGI [57] was 5.31 µM.
